Experimental data as given in ChEMBL document CHEMBL1201862, “PubChem BioAssay data set” (2004).
Each block holds one compound with its values, some of them ahead of it. Active and inactive are the calls of the source.

Experiments:
[1] = target: T1, Cytochrome P450 1A2 (Homo sapiens, UniProt P05177);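 also: PubChem cytochrome P450 panel assay, CYP1A2 panel member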
T1 sequence (P05177 whole entry): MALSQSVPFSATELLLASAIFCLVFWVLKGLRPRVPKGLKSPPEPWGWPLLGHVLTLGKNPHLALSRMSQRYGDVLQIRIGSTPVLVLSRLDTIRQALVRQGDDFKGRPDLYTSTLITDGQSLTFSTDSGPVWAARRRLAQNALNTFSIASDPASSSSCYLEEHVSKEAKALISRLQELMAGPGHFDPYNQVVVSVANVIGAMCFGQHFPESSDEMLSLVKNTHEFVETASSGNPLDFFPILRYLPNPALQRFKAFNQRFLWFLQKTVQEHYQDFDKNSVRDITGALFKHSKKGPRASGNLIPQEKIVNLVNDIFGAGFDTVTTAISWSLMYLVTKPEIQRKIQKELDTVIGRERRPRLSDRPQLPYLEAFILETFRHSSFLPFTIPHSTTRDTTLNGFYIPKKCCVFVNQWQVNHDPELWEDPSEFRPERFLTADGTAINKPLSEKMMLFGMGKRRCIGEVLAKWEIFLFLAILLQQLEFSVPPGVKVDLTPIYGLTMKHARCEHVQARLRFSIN

[2] = viability loss in CEM21 cells – cell-based, CellTiter-Glo luminescence, cherry-picked, cytotoxicity control for viral fusion inhibitor project, dose response (AID 652042); type: functional;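 also: potency for signal decrease meaning cytotoxicity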
[3] = blockers of HIV-1 ZM109 envelope-driven cell-cell fusion – HeLa effector, CEM target cells, luciferase, cherry-pick, dose response (AID 652058); type: functional, cell-based;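 also: luciferase signal from HIV-1 Env mediated cell-cell fusion of effector and target cells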
[4] = HIV-1 AD8 envelope cell-cell fusion blockers – cherry-pick, dose response (AID 652062); type: functional, cell-based;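 also: luciferase signal from cell-cell fusion driven by HIV-1 clade B AD8 Env; potency is for inhibitors of fusion seen as a drop in luminescence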
[5] = off-target signal loss in HeLa-CEM21 co-culture – HeLa F-luc CTL cells, cherry-picked, counter-screen for HIV-1 Env fusion inhibitor project, dose response (AID 652040); type: functional, cell-based;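 also: potency for signal decrease marking cytotoxic or nonspecific inhibition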
[6] = target: Cytochrome P450 2D6 (Homo sapiens, UniProt P10635);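 also: CYP2D6 member of a cytochrome P450 panel assay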
[7] = blockers of HIV-1 envelope-mediated cell-cell fusion – cherry-pick, dose response (AID 652057); type: functional, cell-based
[8] = target: Peroxisome proliferator-activated receptor gamma/Nuclear receptor coactivator 1 (Homo sapiens, UniProt P37231); experiment: TR-FRET dose response biochemical High Throughput Screening assay for agonists of the steroid receptor coactivator 1 (SRC-1) recruitment by the peroxisome proliferator-activated receptor gamma (PPAR gamma): non-selective agonists. [Related pubchem assays (depositor defined):AID1300, AID1808, AID504735, AID631]; type: protein assay
[9] = target: Peroxisome proliferator-activated receptor gamma/Nuclear receptor coactivator 2 (Homo sapiens, UniProt P37231); experiment: (§1) TR-FRET dose response biochemical High Throughput Screening assay for agonists of the steroid receptor coactivator 2 (SRC-2) recruitment by the peroxisome proliferator-activated receptor gamma (PPAR gamma): non-selective agonists. [Related pubchem assays: 1297, 1032 ]; type: functional
[10] = target: T2, Cytochrome P450 2C9 (Homo sapiens, UniProt P11712)
[11] = target: Peroxisome proliferator-activated receptor gamma/Nuclear receptor coactivator 3 (Homo sapiens, UniProt P37231); experiment: as §1, with “3 (SRC-3)” for “2 (SRC-2)”, “1301 (Confirmation screen.), 1048 (Primary screen.)]” for “1297, 1032 ]”; type: functional
[12] = target: Cytochrome P450 2C19 (Homo sapiens, UniProt P33261); experiment: Cytochrome panel assay with activity outcomes. Panel member name: p450-cyp2c19 Compounds with AC50 equal or less than 10 uM are considered active; type: functional
[13] = target: DNA dC->dU-editing enzyme APOBEC-3A (Homo sapiens, UniProt P31941); experiment: Dose Response confirmation of small molecule APOBEC3A DNA Deaminase Inhibitors via a fluorescence-based single-stranded DNA deaminase assay. [Related pubchem assays (depositor defined):AID493011, AID493024]; type: functional
[14] = target: DNA dC->dU-editing enzyme APOBEC-3G (Homo sapiens, UniProt Q9HC16); type: functional;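 also: Dose-response counterscreen measuring inhibition of APOBEC3G DNA deaminase activity, run while confirming APOBEC3A inhibitors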
[15] = test system: HeLa; experiment: ATP-based viability loss in HeLa cells – cell-based, CellTiter-Glo luminescence, cherry-pick samples, cytotoxicity control for MITF activator project, dose response (AID 540259); type: functional; conditions: Homo sapiens
[16] = test system: HEK293; experiment: cells; type: functional, cell-based; conditions: Homo sapiens
[17] = test system: HEK293; experiment: inhibition of NOD1-driven NF-kB reporter – cell-based, luminescence, uHTS, primary screen (AID 1578); type: functional; conditions: Homo sapiens
[18] = test system: HEK293; experiment: NOD2 signaling inhibitors in MDP-stimulated cells, cell-based, uHTS, luminescence (AID 2001); type: functional; conditions: Homo sapiens
[19] = test system: HEK293; experiment: cells; type: functional, cell-based; conditions: Homo sapiens; remark: listed apart in the source
[20] = target: T3, Alkaline phosphatase, tissue-nonspecific isozyme (Homo sapiens, UniProt P05186); experiment: potency against alkaline phosphatase TNAP – biochemical, luminescent, dose response, SAR follow-up (AID 1056)
T3 sequence (P05186 whole entry): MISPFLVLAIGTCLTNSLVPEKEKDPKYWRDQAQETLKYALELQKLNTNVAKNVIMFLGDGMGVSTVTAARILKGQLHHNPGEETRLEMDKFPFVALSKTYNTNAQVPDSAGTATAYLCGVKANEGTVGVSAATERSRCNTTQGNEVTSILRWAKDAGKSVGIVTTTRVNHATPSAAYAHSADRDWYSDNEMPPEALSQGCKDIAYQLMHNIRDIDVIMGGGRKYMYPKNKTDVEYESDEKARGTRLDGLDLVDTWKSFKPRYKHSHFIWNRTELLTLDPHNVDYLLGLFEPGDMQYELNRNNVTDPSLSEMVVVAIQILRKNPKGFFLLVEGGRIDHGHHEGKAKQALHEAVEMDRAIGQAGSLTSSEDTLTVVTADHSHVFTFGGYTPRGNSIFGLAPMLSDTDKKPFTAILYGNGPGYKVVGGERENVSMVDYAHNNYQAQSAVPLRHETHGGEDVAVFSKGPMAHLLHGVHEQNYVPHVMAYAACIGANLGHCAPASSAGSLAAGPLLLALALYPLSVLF

[21] = target: Alkaline phosphatase, placental type (Homo sapiens, UniProt P05187); experiment: human placental alkaline phosphatase inhibition – biochemical, luminescence, confirmation (AID 1512); type: functional
[22] = target: Glucose-6-phosphate 1-dehydrogenase (Homo sapiens, UniProt P11413); experiment: inhibition of Homo sapiens G6PD, dose series – biochemical, fluorescence, selectivity assay for P. falciparum G6PD inhibitor project, dose response (AID 504792); type: functional
[23] = target: Cytochrome P450 3A4 (Homo sapiens, UniProt P08684);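 also: CYP3A4 tested as one member of a cytochrome P450 panel screen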
[24] = target: T2, Cytochrome P450 2C9; remark: listed apart in the source

Sequence of Peroxisome proliferator-activated receptor gamma/Nuclear receptor coactivator 2 (P37231 whole entry): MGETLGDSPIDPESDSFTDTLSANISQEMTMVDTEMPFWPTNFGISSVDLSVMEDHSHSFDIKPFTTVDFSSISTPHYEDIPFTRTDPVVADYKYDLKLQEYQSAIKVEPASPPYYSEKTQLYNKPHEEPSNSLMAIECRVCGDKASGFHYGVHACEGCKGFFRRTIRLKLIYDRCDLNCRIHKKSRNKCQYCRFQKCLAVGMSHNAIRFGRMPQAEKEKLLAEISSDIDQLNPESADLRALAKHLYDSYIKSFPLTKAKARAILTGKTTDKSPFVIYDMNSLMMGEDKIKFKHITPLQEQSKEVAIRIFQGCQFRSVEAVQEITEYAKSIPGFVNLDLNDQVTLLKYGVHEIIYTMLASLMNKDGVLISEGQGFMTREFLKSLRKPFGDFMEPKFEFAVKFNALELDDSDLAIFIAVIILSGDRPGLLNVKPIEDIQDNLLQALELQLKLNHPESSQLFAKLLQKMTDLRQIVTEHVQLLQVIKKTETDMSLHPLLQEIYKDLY
Sequence of Peroxisome proliferator-activated receptor gamma/Nuclear receptor coactivator 2 (Q15596 whole entry, further chain): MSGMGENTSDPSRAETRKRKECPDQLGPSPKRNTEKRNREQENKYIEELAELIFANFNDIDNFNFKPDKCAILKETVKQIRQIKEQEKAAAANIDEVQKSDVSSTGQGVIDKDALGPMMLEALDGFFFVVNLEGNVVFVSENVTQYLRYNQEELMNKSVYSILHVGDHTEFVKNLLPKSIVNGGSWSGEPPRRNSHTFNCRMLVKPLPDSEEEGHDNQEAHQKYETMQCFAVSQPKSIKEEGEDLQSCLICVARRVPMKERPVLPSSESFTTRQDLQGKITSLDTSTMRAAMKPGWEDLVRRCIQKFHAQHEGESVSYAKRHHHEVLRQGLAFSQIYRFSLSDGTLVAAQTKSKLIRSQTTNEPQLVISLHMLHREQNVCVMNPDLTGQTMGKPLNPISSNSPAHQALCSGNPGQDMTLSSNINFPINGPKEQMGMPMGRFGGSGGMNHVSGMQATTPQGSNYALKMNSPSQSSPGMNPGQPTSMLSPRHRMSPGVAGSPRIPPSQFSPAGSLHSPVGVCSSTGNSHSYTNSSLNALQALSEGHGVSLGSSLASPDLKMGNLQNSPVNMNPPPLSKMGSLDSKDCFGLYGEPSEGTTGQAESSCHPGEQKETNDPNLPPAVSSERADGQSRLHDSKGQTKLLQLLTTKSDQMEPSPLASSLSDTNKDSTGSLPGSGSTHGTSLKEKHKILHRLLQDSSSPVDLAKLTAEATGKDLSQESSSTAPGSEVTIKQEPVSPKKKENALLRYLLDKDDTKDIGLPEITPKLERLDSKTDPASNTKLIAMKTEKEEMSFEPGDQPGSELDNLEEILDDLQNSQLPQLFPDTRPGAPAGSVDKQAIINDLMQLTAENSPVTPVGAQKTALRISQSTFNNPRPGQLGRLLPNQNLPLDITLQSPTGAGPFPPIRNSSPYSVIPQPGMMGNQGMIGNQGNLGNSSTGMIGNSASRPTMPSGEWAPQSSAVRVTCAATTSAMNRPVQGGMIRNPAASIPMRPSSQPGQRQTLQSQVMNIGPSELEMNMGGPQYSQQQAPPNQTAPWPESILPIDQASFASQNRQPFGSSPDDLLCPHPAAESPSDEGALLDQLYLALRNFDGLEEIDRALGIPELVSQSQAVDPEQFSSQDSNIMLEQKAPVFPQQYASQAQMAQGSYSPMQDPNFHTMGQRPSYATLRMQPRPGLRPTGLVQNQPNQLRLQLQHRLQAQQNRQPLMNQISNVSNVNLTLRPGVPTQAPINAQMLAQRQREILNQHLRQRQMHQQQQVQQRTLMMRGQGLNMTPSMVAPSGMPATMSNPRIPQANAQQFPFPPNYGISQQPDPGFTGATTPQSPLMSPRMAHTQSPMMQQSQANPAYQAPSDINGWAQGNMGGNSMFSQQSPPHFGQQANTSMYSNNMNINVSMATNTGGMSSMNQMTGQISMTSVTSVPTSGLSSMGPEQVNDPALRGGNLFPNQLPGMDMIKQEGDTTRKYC
Sequence of Peroxisome proliferator-activated receptor gamma/Nuclear receptor coactivator 1 (P37231 whole entry): as the sequence (P37231 whole entry) above
Sequence of Peroxisome proliferator-activated receptor gamma/Nuclear receptor coactivator 1 (Q15788 whole entry, further chain): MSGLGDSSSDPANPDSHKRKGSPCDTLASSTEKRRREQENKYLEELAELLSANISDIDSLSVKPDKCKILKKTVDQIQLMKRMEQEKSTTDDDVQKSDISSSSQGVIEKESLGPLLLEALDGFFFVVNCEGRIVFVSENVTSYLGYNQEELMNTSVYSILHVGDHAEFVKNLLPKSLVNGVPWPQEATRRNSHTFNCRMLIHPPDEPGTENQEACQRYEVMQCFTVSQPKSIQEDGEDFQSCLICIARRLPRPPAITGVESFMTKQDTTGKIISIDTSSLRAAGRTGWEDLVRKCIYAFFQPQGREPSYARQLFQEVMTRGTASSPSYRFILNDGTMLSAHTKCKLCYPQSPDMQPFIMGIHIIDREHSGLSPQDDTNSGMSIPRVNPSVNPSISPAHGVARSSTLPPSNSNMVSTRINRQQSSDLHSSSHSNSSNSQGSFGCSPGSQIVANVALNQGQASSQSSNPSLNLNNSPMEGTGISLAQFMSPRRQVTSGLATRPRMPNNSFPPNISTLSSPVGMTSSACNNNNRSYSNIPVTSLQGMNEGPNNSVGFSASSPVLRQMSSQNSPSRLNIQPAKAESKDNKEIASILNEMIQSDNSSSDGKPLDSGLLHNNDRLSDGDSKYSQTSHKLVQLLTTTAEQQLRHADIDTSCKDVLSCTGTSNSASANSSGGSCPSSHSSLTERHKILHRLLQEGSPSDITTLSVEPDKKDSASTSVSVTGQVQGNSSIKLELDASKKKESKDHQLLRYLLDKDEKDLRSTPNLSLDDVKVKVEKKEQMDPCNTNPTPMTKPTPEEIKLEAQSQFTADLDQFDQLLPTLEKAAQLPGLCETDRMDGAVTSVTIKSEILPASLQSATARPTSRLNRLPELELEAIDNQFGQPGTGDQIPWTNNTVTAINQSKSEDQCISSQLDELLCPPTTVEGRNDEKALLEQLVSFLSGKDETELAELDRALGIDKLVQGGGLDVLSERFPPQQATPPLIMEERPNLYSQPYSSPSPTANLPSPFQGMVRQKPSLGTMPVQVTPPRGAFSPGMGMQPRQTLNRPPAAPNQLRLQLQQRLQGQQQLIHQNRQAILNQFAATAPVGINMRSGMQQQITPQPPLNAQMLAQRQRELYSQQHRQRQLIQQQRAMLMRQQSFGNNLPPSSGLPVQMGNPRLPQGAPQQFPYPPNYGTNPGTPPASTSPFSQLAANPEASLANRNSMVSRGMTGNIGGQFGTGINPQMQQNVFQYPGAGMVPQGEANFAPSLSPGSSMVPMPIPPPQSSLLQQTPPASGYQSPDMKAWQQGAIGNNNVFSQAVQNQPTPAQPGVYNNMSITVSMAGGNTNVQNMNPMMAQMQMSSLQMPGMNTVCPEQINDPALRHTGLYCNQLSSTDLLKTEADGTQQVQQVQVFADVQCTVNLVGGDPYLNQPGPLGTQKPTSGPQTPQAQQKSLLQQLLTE
Sequence of Cytochrome P450 2C19 (P33261 whole entry): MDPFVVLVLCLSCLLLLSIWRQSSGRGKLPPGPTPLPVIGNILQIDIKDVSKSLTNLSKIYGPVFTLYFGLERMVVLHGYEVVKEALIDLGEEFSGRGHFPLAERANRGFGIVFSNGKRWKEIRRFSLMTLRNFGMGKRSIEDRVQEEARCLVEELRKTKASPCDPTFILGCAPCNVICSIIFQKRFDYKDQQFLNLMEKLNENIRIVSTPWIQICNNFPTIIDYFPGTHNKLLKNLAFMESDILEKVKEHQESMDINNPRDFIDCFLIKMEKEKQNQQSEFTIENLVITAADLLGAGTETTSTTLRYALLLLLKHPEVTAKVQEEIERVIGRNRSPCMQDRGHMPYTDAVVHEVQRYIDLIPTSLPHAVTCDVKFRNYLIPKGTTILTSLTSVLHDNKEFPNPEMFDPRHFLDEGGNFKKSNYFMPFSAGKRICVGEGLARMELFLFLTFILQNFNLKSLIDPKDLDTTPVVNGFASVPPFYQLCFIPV
T2 sequence (P11712 whole entry): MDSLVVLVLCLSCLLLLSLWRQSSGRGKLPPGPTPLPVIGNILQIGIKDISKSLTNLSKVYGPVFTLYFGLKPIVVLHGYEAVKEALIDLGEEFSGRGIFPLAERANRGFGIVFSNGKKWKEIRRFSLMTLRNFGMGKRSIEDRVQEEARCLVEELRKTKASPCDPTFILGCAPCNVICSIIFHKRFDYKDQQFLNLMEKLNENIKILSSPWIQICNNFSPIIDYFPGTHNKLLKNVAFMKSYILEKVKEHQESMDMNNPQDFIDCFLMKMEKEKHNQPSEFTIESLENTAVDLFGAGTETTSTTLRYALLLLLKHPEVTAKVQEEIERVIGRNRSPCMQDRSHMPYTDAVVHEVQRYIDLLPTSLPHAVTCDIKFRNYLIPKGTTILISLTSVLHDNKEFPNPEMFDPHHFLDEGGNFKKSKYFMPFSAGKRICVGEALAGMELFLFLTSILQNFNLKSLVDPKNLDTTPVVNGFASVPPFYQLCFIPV

SMILES: COc1ccc2nc(NC(=O)C3CCN(S(=O)(=O)c4cccc5nsnc45)CC3)sc2c1
- AC50 [1]: 3.16 µM (inconclusive)
- AC50 [2]: 41.8 µM (active)
- AC50 [3]: 1.9 µM (active)
- AC50 [4]: 4 µM (active)
- AC50 [5]: > 70 µM (inactive)
- AC50 [6]: inconclusive
- AC50 [7]: 65.4 µM (active)

- EC50 [8]: 5.96 µM (active)
- EC50 [9]: 5.64 µM (active)
- AC50 [10]: inconclusive
- EC50 [11]: > 8.82 µM (not active)
- AC50 ([12]; read-out: AC50): 39.8 µM (inconclusive)
SMILES: Cc1ccc(Sc2ccc(NC(=O)c3ccc(S(C)(=O)=O)cc3Cl)cc2)cc1

SMILES: C[N+]1(CCCOC(=O)C2(c3ccccc3)CCCC2)CCOCC1
- IC50 [13]: 1.61 µM (active)
- IC50 [14]: 1.99 µM (active)

- EC50 [8]: > 79.4 µM (inactive)
- EC50 [9]: > 26.5 µM (not active)
- EC50 [11]: > 79.4 µM (not active)
SMILES: Cn1c(=O)cc(SCC(=O)NCCCN2CCN(c3ccc(F)cc3)CC2)c2ccccc21

SMILES: Cc1cccc(C(=O)Nc2sc3c(c2C#N)CCCCC3)c1
- AC50 [15]: 42.1 µM (active)

SMILES: CC(C)CNC(=O)O
- AC50 [12]: inconclusive
- AC50 [6]: inconclusive

SMILES: COc1cc(C(=O)NCCOc2cc(C)ccc2C(C)C)cc(OC)c1OC
- IC50 [16]: 12 µM (active)
- EC50 [17]: 3.03 µM (active)
- IC50 [18]: 5.42 µM (active)
- IC50 [19]: 5.52 µM (active)

- IC50 [20]: 17.8 µM (active)
- IC50 [21]: 5.59 µM (active)
SMILES: C=CCn1c(SCC(=O)c2ccc(O)c(O)c2)nnc1-c1cccc(C)c1

- EC50 [8]: > 79.4 µM (inactive)
- EC50 [9]: > 79.4 µM (not active)
- EC50 [11]: > 79.4 µM (not active)
SMILES: CCOC(=O)C1CCN(C(=O)CSc2cc(=O)n(C)c3ccccc23)CC1

SMILES: O=C(OCC(=O)c1ccc([N+](=O)[O-])cc1)/C(=C\c1ccc(Cl)cc1)NC(=O)c1ccccc1
- IC50 [22]: > 80 µM (inactive)
- AC50 [23]: 22.4 µM (inconclusive)
- AC50 [24]: 0.0355 µM (inconclusive)
